Columns and labels:
[1] = system: bronchoconstricting effects of a standard dose of acetylcholine; assay: Bronchodilation by aerosol inhalation (method of Rosenthale et al.): inhibition of the bronchoconstricting effects of a standard dose of acetylcholine; assay type: in vivo; conditions: guinea pig
From the text: In using the compounds of the invention to produce bronchodilating effects in warm-blooded animals, they may be administered in a variety of dosage forms: oral, injectable, and aerosol inhalation. Aerosol inhalation is a preferred method because of its rapid onset of action, great potency, and specificity of action. The particular dosage to obtain the bronchodilating effect will vary with the particular compound employed, the particular animal involved, and the degree of bronchodilation desired. In the guinea pig, by aerosol inhalation, the dose to produce bronchodilation is from about 1.5 micrograms to about 100 micrograms, and preferably from about 1.5 to about 50 micrograms. The bronchodilation produced upon aerosol inhalation can be observed by the method of Rosenthale et al., J. Pharmacol. Exp. Ther., 178, 541 (1971). Using this procedure the following result was obtained.

[2] = system: ADP induced platelet aggregation (human platelet rich plasma); assay: ADP induced platelet aggregation in platelet rich plasma (modification of Born and Cross); assay type: cell-based; conditions: human PRP, in vitro; for IC50: Platelet, ADP induced (2 to 4 μM ADP), read-out: Concentration which inhibits 50% of platelet aggregation
Protocol: Platelet aggregation is the initial step in thrombus formation and it is considered that compounds which prevent aggregation or reduce platelet adhesiveness may inhibit the initiation of the arteriosclerotic process. The effect of drugs on aggregation is measured in platelet rich plasma (PRP) containing adenosine diphosphate (ADP) which markedly increases aggregation in vitro and may be a physiological agent for doing so in vivo.
Human blood is collected from fasted normal blood donors in siliconized 50 ml. Vacutainers that contain 3.8% sodium citrate. Centrifugation at 500 G. for 3 minutes at 5° C. separates the red blood cells from the PRP. The supernatant PRP is pipetted off and the remainder is centrifuged at 1000 G. for 10 minutes at 25° C. to obtain platelet poor plasma for standardization of the automated Payton aggregometer. In the running of the platelet aggregation test a cell containing 1.0 ml. of PRP is stirred at 1,100 rpm and the test compound is added in 0.2 ml. of buffered saline to give an initial concentration of 5 × 10^-^3 M, or 5 × 10^-^4 M. After 3 minutes, a concentration of ADP predetermined to yield marked platelet aggregation (2 to 4 μM) is added in 0.1 ml. of buffered saline. The curve of light transmission at 610 mμ is followed for 6 minutes. Compounds found to be active at the initial concentration are run at lower concentrations. The results are expressed as the concentration which gives 50% inhibition of the ADP induced aggregation.

[3] = Hypotension in the anesthetized dog, intravenous route; assay type: in vivo; conditions: dose 100 μg/kg
Protocol: Thus in the anesthetized dog by the intravenous route the dose to produce hypotension is from about 1 μg/kg. to about 200 μg/kg. and preferably from about 10 μg/kg. to about 100 μg/kg. Using this procedure the following results were obtained.

IC50 [2] [nM]	Compound	Percent Inhibition of the bronchoconstricting effects of a standard dose of acetylcholine ([1]; dose 15 μg) [%]	Inhibition of ADP induced platelet aggregation (at concentration) ([2]; at 2.6 × 10^-^6 M) [%]	Percent Inhibition of the bronchoconstricting effects of a standard dose of acetylcholine ([1]; dose 1.5 μg) [%]	Δb.p. [3] [mm. Hg]	Inhibition of ADP induced platelet aggregation (at concentration) ([2]; at 1.5 × 10^-^6 M) [%]
2600	CCCCC[C@H](O)/C=C/[C@H]1[C@H](O)C=C[C@@H]1C/C=C\CCCC(=O)O [7-(4α-hydroxy-5β-[(3S)-3-hydroxy-trans-1-octenyl]-2-cyclopenten-1α-yl)-cis-5-heptenoic acid]	44	50	–	–	–
1200	CCCCC[C@H](O)/C=C/[C@H]1[C@H](O)C=C[C@@H]1CCCCCCC(=O)O [4α-hydroxy-5β-[(3S)-3-hydroxy-trans-1-octenyl]-2-cyclopentene-1α-heptanoic acid]	–	–	60	-34	63

From US3933904A, “11,15-Dihydroxy-9,13-prostadienoic acid” (American Home Products Corporation, priority 1974, dated 1976)
